Experimental data as given in PubChem BioAssay AID2060496 (Molecular Pharmacology Branch, DTP, NCI, 2025).

System: 276233-004-R-J1-PDC complex spheroid viability
Experiment: Anticancer human tumor 276233-004-R-J1-PDC patient-derived colon adenocarcinoma cell line growth inhibition [GQUAD]
Conditions: for IC50: curve of first compound; for viability, T/C: stronger effect = lower value
Summary of the method: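 Multi-cell-type spheroids of tumor cells with HUVEC and mesenchymal stem cells, treated with drug combinations. Concentrations descend in half-log steps from near clinical Cmax, or from 10 microM where Cmax is unknown; viability read-out.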

[1] = second compound 0.0316 µM, first compound 0.0316 µM
[2] = second compound 0.0316 µM, first compound 0.1 µM
[3] = second compound 0.0316 µM, first compound 0.316 µM
[4] = second compound 0.0316 µM, first compound 1 µM
[5] = second compound 0.0316 µM, first compound 3.16 µM
[6] = second compound 0.0316 µM, first compound 10 µM
[7] = second compound 0.1 µM, first compound 0.0316 µM
[8] = second compound 0.1 µM, first compound 0.1 µM
[9] = second compound 0.1 µM, first compound 0.316 µM
[10] = second compound 0.1 µM, first compound 1 µM
[11] = second compound 0.1 µM, first compound 3.16 µM
[12] = second compound 0.1 µM, first compound 10 µM
[13] = second compound 0.316 µM, first compound 0.0316 µM
[14] = second compound 0.316 µM, first compound 0.1 µM
[15] = second compound 0.316 µM, first compound 0.316 µM
[16] = second compound 0.316 µM, first compound 1 µM
[17] = second compound 0.316 µM, first compound 3.16 µM
[18] = second compound 0.316 µM, first compound 10 µM
[19] = second compound 1 µM, first compound 0.0316 µM
[20] = second compound 1 µM, first compound 0.1 µM
[21] = second compound 1 µM, first compound 0.316 µM
[22] = second compound 1 µM, first compound 1 µM
[23] = second compound 1 µM, first compound 3.16 µM
[24] = second compound 1 µM, first compound 10 µM
[25] = second compound 3.16 µM, first compound 0.0316 µM
[26] = second compound 3.16 µM, first compound 0.1 µM
[27] = second compound 3.16 µM, first compound 0.316 µM
[28] = second compound 3.16 µM, first compound 1 µM
[29] = second compound 3.16 µM, first compound 3.16 µM
[30] = second compound 3.16 µM, first compound 10 µM
[31] = second compound 10 µM, first compound 0.0316 µM
[32] = second compound 10 µM, first compound 0.1 µM
[33] = second compound 10 µM, first compound 0.316 µM
[34] = second compound 10 µM, first compound 1 µM
[35] = second compound 10 µM, first compound 3.16 µM
[36] = second compound 10 µM, first compound 10 µM
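Also: spheroids exposed to drugs for seven days.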
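For viability, T/C in this document: 100% = DMSO vehicle control viability.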

Compound `CC(=O)O[C@H]1C(=O)[C@@]2(C)[C@H]([C@H](OC(=O)c3ccccc3)[C@]3(O)C[C@H](OC(=O)[C@H](O)[C@@H](NC(=O)c4ccccc4)c4ccccc4)C(C)=C1C3(C)C)[C@]1(OC(C)=O)CO[C@@H]1C[C@@H]2O` + CN(C)c1ccc(Nc2c3ccc(NC(=O)CCN4CCCC4)cc3nc3cc(NC(=O)CCN4CCCC4)ccc23)cc1 has an IC50 (second compound 0.0316 µM) of over 10 µM, an IC50 (second compound 0.1 µM) of over 10 µM and an IC50 (second compound 0.316 µM) of over 10 µM. The IC50 (second compound 1 µM) was 4.25 µM, the IC50 (second compound 3.16 µM) was under 0.0316 µM and the IC50 (second compound 10 µM) was under 0.0316 µM. The viability, T/C [1] was 86.5%, the viability, T/C [2] was 98.3% and the viability, T/C [3] was 87.9%. For the same compound, the viability, T/C [4] was 85.2%, the viability, T/C [5] was 88% and the viability, T/C [6] was 80.6%. The viability, T/C [7] was 70.4%, the viability, T/C [8] was 82.2% and the viability, T/C [9] was 65.8%. For the same compound, the viability, T/C [10] was 79.7%, the viability, T/C [11] was 69.8% and the viability, T/C [12] was 69.8%. For the same compound, the viability, T/C [13] was 67.5%, the viability, T/C [14] was 65.5% and the viability, T/C [15] was 57.4%. It also gave a viability, T/C [16] of 54.1%, a viability, T/C [17] of 67.8% and a viability, T/C [18] of 54.9%. It also gave a viability, T/C [19] of 52.7%, a viability, T/C [20] of 52.6% and a viability, T/C [21] of 57%. The viability, T/C [22] was 55.9%, the viability, T/C [23] was 54.4% and the viability, T/C [24] was 41.7%. The viability, T/C [25] was 44.4%, the viability, T/C [26] was 41.9% and the viability, T/C [27] was 37.2%. For the same compound, the viability, T/C [28] was 49.5%, the viability, T/C [29] was 50% and the viability, T/C [30] was 49.7%. The viability, T/C [31] was 36.8%, the viability, T/C [32] was 44.1% and the viability, T/C [33] was 43.7%. For the same compound, the viability, T/C [34] was 44.3%, the viability, T/C [35] was 51.9% and the viability, T/C [36] was 51.7%.

With `CC(C)(O)C1CCC(Nc2ccc3ncc(-c4cccc(C(F)(F)F)c4)n3n2)CC1` (centres undefined) + CN(C)c1ccc(Nc2c3ccc(NC(=O)CCN4CCCC4)cc3nc3cc(NC(=O)CCN4CCCC4)ccc23)cc1 the IC50 (second compound 0.0316 µM) was over 10 µM, the IC50 (second compound 0.1 µM) was 2.55 µM and the IC50 (second compound 0.316 µM) was over 10 µM. The IC50 (second compound 1 µM) was 1.06 µM, the IC50 (second compound 3.16 µM) was 0.101 µM and the IC50 (second compound 10 µM) was under 0.0316 µM. It also gave a viability, T/C [1] of 90.4%, a viability, T/C [2] of 84.4% and a viability, T/C [3] of 55.8%. For the same compound, the viability, T/C [4] was 84%, the viability, T/C [5] was 48.6% and the viability, T/C [6] was 57%. The viability, T/C [7] was 82.6%, the viability, T/C [8] was 69.2% and the viability, T/C [9] was 62.7%. For the same compound, the viability, T/C [10] was 57.4%, the viability, T/C [11] was 45.2% and the viability, T/C [12] was 46%. The viability, T/C [13] was 55.9%, the viability, T/C [14] was 55.4% and the viability, T/C [15] was 50.2%. For the same compound, the viability, T/C [16] was 57.1%, the viability, T/C [17] was 55% and the viability, T/C [18] was 46.6%. It also gave a viability, T/C [19] of 75%, a viability, T/C [20] of 56.3% and a viability, T/C [21] of 54.4%. It also gave a viability, T/C [22] of 56.3%, a viability, T/C [23] of 50.2% and a viability, T/C [24] of 41%. The viability, T/C [25] was 67.5%, the viability, T/C [26] was 45.4% and the viability, T/C [27] was 51.3%. It also gave a viability, T/C [28] of 39%, a viability, T/C [29] of 46.8% and a viability, T/C [30] of 34%. For the same compound, the viability, T/C [31] was 46.3%, the viability, T/C [32] was 43.4% and the viability, T/C [33] was 41.8%. It also gave a viability, T/C [34] of 35.5%, a viability, T/C [35] of 41% and a viability, T/C [36] of 22.4%.
